Measurements from PubChem BioAssay AID2060619 (Molecular Pharmacology Branch, DTP, NCI, 2025).

Test system: 323965-272-R-J2-PDC complex spheroid viability
Test: Anticancer human tumor 323965-272-R-J2-PDC patient-derived pancreatic carcinoma cell line growth inhibition [CLK]
Settings: for IC50: curve of first compound; for viability, T/C: stronger effect = lower value
From the text: A high-throughput screen of multi-cell type tumor spheroids was designed to identify active combinations of […] and targeted small molecules. Complex spheroids include a stromal component modeled by human endothelial cells (HUVEC) and fibroblasts modeled by human mesenchymal stem cells (MSCs). The concentration ranges selected for each drug and investigational agent were based upon clinically achievable concentrations if the clinical Cmax of the agent was known.
Compounds. The drugs and investigational agents: cirtuvivint (SM08502; NSC835563), CC-671 (NSC850746), vemurafenib (NSC761431), tapotoclax (NSC804041), sotorasib (NSC818433), adagrasib (NSC831453), MRTX-1133 (NSC836407), BAY2416964 (NSC825713), copanlisib (NSC816437), inavolisib (NSC800729), abemaciclib (NSC768073), osimertinib (NSC779217), entinostat (NSC756642), eltanexor (KPT-8602, NSC794443), venetoclax (NSC766270), ceralasertib (NSC777638), bortezomib (NSC756655), olaparib (NSC753686), talazoparib (NSC767125), alisertib (NSC759677), peposertib (NSC802822), gemcitabine (NSC613327), 5-fluorouracil (NSC19893), SN-38 (NSC673596), oxaliplatin (NSC266046), paclitaxel (NSC125973), and doxorubicin (NSC123127), were obtained from the National Cancer Institute (NCI) Developmental Therapeutics Program Chemical Repository. The FDA-approved anticancer drug set is available from the Developmental Therapeutics Program at https://dtp.cancer.gov/organization/dscb/obtaining/available plates.htm. […] The stock solutions were prepared in dimethyl sulfoxide (DMSO, Sigma-Aldrich, St. Louis, MO, cat. D2650), except for the platinum complexes which were prepared in saline (Quality Biological, Gaithersburg, MD, cat. 114-055-101), at 800-fold the tested concentration and stored at -70 degrees C prior to their use. All drugs and investigational agents were tested over a range starting from a high concentration at or near the clinical Cmax and decreasing in half-log increments. If the clinical Cmax for an agent had not been determined, the highest concentration tested was 10 microM.
Cell Culture. All cells were maintained in an incubator at 37 degrees C and 5% CO2 with 95% humidity. The PDC lines were cultured according to standard operating procedures established by the NCI PDMR. Briefly, all PDCs were thawed and cultured in Matrigel-coated flasks prepared with a working solution of 1X Ham's F-12 nutrient mix, without supplementation (Invitrogen, Waltham, MA, cat. 11765054), 100 U/mL penicillin-streptomycin (Invitrogen, cat. 15140122), and 2.5% Matrigel (Corning Inc., Corning, NY, cat. 354248) for the first three passages. The 947758-054-R-J2-PDC line was cultured in 6B/Colon 1A media, which includes advanced DMEM/F-12 (Thermo Fisher Scientific, cat. 12634028), 10 mM HEPES (Thermo Fisher Scientific, cat. 15630080), 1X GlutaMAX supplement (Thermo Fisher Scientific, cat. 35050061), 0.1 mg/mL primocin (InvivoGen, cat. ant-pm-2), 10% defined fetal bovine serum, heat inactivated (HyClone Laboratories Inc., cat. SH30070.03HI), 1.25 mM N-Acetyl-L-cysteine (Sigma-Aldrich, cat. A9165), 10 mM nicotinamide (Sigma-Aldrich, cat. N0636), 1X B-27 supplement (Thermo Fisher Scientific, cat. 17504044), 1X N-2 supplement (Thermo Fisher Scientific, cat. 17502048), and 10 microM Y-27632 dihydrochloride (Tocris Bioscience, cat. 1254). The 876862-298-R-J1-PDC was cultured in 6E media, which includes all 6B/Colon 1A media components plus 50% L-WRN conditioned media (ATCC, cat. CRL-3276), 50 ng/mL recombinant human EGF recombinant protein (hEGF; Thermo Fisher Scientific, cat. PHG0311), 10 ng/mL recombinant human fibroblast growth factor 10 (hGFG-10; PeproTech, cat. 100-26), 1 ng/mL recombinant human fibroblast growth factor 2 (hFGF-2; PeproTech, cat. 100-18B), and 1 µM prostaglandin E2 (PGE2; Tocris, cat. 2296). The 227483-062-R1-J1-PDC line was cultured in Panc media, containing all 6E components except hFGF-2, with the addition of 500 nM SB-431542 (Selleckchem, cat. S1067) and 10 nM gastrin (Tocris, cat. 3006). […]

[1] = second compound 0.0316 µM, first compound 0.0316 µM
[2] = second compound 0.0316 µM, first compound 0.1 µM
[3] = second compound 0.0316 µM, first compound 0.316 µM
[4] = second compound 0.0316 µM, first compound 1 µM
[5] = second compound 0.0316 µM, first compound 3.16 µM
[6] = second compound 0.0316 µM, first compound 10 µM
[7] = second compound 0.1 µM, first compound 0.0316 µM
[8] = second compound 0.1 µM, first compound 0.1 µM
[9] = second compound 0.1 µM, first compound 0.316 µM
[10] = second compound 0.1 µM, first compound 1 µM
[11] = second compound 0.1 µM, first compound 3.16 µM
[12] = second compound 0.1 µM, first compound 10 µM
[13] = second compound 0.316 µM, first compound 0.0316 µM
[14] = second compound 0.316 µM, first compound 0.1 µM
[15] = second compound 0.316 µM, first compound 0.316 µM
[16] = second compound 0.316 µM, first compound 1 µM
[17] = second compound 0.316 µM, first compound 3.16 µM
[18] = second compound 0.316 µM, first compound 10 µM
[19] = second compound 1 µM, first compound 0.0316 µM
[20] = second compound 1 µM, first compound 0.1 µM
[21] = second compound 1 µM, first compound 0.316 µM
[22] = second compound 1 µM, first compound 1 µM
[23] = second compound 1 µM, first compound 3.16 µM
[24] = second compound 1 µM, first compound 10 µM
[25] = second compound 3.16 µM, first compound 0.0316 µM
[26] = second compound 3.16 µM, first compound 0.1 µM
[27] = second compound 3.16 µM, first compound 0.316 µM
[28] = second compound 3.16 µM, first compound 1 µM
[29] = second compound 3.16 µM, first compound 3.16 µM
[30] = second compound 3.16 µM, first compound 10 µM
[31] = second compound 10 µM, first compound 0.0316 µM
[32] = second compound 10 µM, first compound 0.1 µM
[33] = second compound 10 µM, first compound 0.316 µM
[34] = second compound 10 µM, first compound 1 µM
[35] = second compound 10 µM, first compound 3.16 µM
[36] = second compound 10 µM, first compound 10 µM
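Note: spheroids exposed to agents for seven days before readout.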
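Throughout, for viability, T/C: percent of DMSO vehicle control wells so 100% = untreated growth.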

CCCS(=O)(=O)Nc1ccc(F)c(C(=O)c2c[nH]c3ncc(-c4ccc(Cl)cc4)cc23)c1F + CN1CCN(c2cc(C(=O)Nc3cc4cc(-c5cnn(C)c5)ccc4cn3)ccn2)CC1
IC50 (second compound 0.0316 µM): > 10000 nM | IC50 (second compound 0.1 µM): > 10000 nM | IC50 (second compound 0.316 µM): < 31.6 nM | IC50 (second compound 1 µM): < 31.6 nM | IC50 (second compound 3.16 µM): < 31.6 nM | IC50 (second compound 10 µM): < 31.6 nM | viability, T/C [1]: 97.9% | viability, T/C [2]: 102% | viability, T/C [3]: 102% | viability, T/C [4]: 111% | viability, T/C [5]: 101% | viability, T/C [6]: 78.7% | viability, T/C [7]: 68.4% | viability, T/C [8]: 68.1% | viability, T/C [9]: 80.1% | viability, T/C [10]: 83% | viability, T/C [11]: 84.7% | viability, T/C [12]: 66.5% | viability, T/C [13]: 28.1% | viability, T/C [14]: 26.3% | viability, T/C [15]: 30.5% | viability, T/C [16]: 34.7% | viability, T/C [17]: 32.3% | viability, T/C [18]: 35% | viability, T/C [19]: 4.7% | viability, T/C [20]: 3.95% | viability, T/C [21]: 3.77% | viability, T/C [22]: 4.38% | viability, T/C [23]: 4.19% | viability, T/C [24]: 6.54% | viability, T/C [25]: 4.04% | viability, T/C [26]: 4.11% | viability, T/C [27]: 4.16% | viability, T/C [28]: 4.42% | viability, T/C [29]: 5.61% | viability, T/C [30]: 6.54% | viability, T/C [31]: 4.15% | viability, T/C [32]: 4.79% | viability, T/C [33]: 4.2% | viability, T/C [34]: 4.29% | viability, T/C [35]: 4.87% | viability, T/C [36]: 5.79%

COC1C=CCC(C)C(C)S(=O)(=O)NC(=O)c2ccc3c(c2)N(CC2CCC21)CC1(CCCc2cc(Cl)ccc21)CO3 (centres undefined) + CN1CCN(c2cc(C(=O)Nc3cc4cc(-c5cnn(C)c5)ccc4cn3)ccn2)CC1
IC50 (second compound 0.0316 µM): 841 nM | IC50 (second compound 0.1 µM): 456 nM | IC50 (second compound 0.316 µM): < 31.6 nM | IC50 (second compound 1 µM): < 31.6 nM | IC50 (second compound 3.16 µM): < 31.6 nM | IC50 (second compound 10 µM): < 31.6 nM | viability, T/C [1]: 97.8% | viability, T/C [2]: 92.1% | viability, T/C [3]: 62% | viability, T/C [4]: 47.8% | viability, T/C [5]: 30% | viability, T/C [6]: 12.3% | viability, T/C [7]: 72.5% | viability, T/C [8]: 67% | viability, T/C [9]: 53.5% | viability, T/C [10]: 39.1% | viability, T/C [11]: 28.9% | viability, T/C [12]: 10.4% | viability, T/C [13]: 27.5% | viability, T/C [14]: 26.2% | viability, T/C [15]: 21.1% | viability, T/C [16]: 17.7% | viability, T/C [17]: 15.1% | viability, T/C [18]: 9.86% | viability, T/C [19]: 3.35% | viability, T/C [20]: 4.19% | viability, T/C [21]: 4.18% | viability, T/C [22]: 3.31% | viability, T/C [23]: 1.96% | viability, T/C [24]: 2.43% | viability, T/C [25]: 3.51% | viability, T/C [26]: 3.78% | viability, T/C [27]: 3.33% | viability, T/C [28]: 3.25% | viability, T/C [29]: 2.59% | viability, T/C [30]: 2.44% | viability, T/C [31]: 5.25% | viability, T/C [32]: 3.97% | viability, T/C [33]: 3.84% | viability, T/C [34]: 3.47% | viability, T/C [35]: 2.83% | viability, T/C [36]: 2.37%
